Test results as given in patent publication EP4759805A1, “NLRP3 INFLAMMASOME INHIBITOR AND USE THEREOF” (NEUROCRINE BIOSCIENCES, INC., priority 2023, dated 2025).

Target: T1, NLRP3 inflammasome (Homo sapiens, UniProt Q96P20)
T1 construct: endogenous in cells; host or cells: THP-1 cells (PMA-differentiated, LPS-primed, nigericin-stimulated)
Assay: Cell assay of inhibitory activity against NLRP3 inflammasome in THP-1 cells (LPS/nigericin stimulation, caspase-1 glo readout)
Format: cell-based
Settings: PMA-differentiated THP-1 cells; LPS 500 ng/ml 3 h, compound 1 h, nigericin 10 µg/ml 30 min; active caspase-1 in supernatant
Procedure: Experimental Example 1: Cell assay of inhibitory activity of the compounds of the present disclosure against NLRP3 inflammasome
Test compounds: the compounds of the present disclosure prepared in accordance with the methods described in the Examples
THP-1 was an immortalized human macrophage cell line.
Test instrument: Microplate reader (manufactured by PE)
• 1. THP-1 cells were cultured in 1640 complete medium (500 ml 1640+56 ml FBS+560 µl 1000× P/S+2 µl mercaptoethanol), and used within 3 to 20 passages. • 2. Coating of culture plates: 100 µl of polylysine solution was added into a 96-well cell culture plate and incubated at 37°C for 30min. The solution was discarded, and the plate was washed twice with PBS for later use. • 3. Induction of differentiation of THP-1: THP-1 cells were resuspended in an appropriate amount of complete medium containing 10 ng/ml PMA to achieve a cell density of 5×10^5 cells /ml in the suspension. The cell suspension was added into a 96-well plate with 100 µl of cell suspension per well, and the 96-well plate was cultured overnight for 16 hours in a 37°C CO2 cell incubator. • 4. Stimulation of THP-1: • a. Serum-free THP-1 culture medium containing LPS was added to achieve a final concentration of 500 ng/ml, and the resultant was cultured in a 37°C CO2 cell incubator for 3h; • b. The compounds to be tested were prepared into stock solutions at gradient concentrations with DMSO. The resulting solutions were added to the cells, evenly mixed, and finally diluted at 1:1000. The 96-well plate was cultured in a 37°C CO2 cell incubator for 1h. • c. Nigericin was added to each well to achieve a final concentration of 10 µg/ml, and the resultant was cultured in a 37°C CO2 cell incubator for 30 min. • d. The resulting culture medium in each well was transferred to a new culture plate, which was then centrifuged at 3000 rpm for 5min. Afterwards, the supernatant was transferred to a new 96-well plate. • e. The collected supernatant samples of the cell culture medium were determined by using a commercial caspase-1 glo kit, and the content of human active caspase-1 was determined according to the manufacturer's instructions.

T1 sequence (Q96P20 whole entry): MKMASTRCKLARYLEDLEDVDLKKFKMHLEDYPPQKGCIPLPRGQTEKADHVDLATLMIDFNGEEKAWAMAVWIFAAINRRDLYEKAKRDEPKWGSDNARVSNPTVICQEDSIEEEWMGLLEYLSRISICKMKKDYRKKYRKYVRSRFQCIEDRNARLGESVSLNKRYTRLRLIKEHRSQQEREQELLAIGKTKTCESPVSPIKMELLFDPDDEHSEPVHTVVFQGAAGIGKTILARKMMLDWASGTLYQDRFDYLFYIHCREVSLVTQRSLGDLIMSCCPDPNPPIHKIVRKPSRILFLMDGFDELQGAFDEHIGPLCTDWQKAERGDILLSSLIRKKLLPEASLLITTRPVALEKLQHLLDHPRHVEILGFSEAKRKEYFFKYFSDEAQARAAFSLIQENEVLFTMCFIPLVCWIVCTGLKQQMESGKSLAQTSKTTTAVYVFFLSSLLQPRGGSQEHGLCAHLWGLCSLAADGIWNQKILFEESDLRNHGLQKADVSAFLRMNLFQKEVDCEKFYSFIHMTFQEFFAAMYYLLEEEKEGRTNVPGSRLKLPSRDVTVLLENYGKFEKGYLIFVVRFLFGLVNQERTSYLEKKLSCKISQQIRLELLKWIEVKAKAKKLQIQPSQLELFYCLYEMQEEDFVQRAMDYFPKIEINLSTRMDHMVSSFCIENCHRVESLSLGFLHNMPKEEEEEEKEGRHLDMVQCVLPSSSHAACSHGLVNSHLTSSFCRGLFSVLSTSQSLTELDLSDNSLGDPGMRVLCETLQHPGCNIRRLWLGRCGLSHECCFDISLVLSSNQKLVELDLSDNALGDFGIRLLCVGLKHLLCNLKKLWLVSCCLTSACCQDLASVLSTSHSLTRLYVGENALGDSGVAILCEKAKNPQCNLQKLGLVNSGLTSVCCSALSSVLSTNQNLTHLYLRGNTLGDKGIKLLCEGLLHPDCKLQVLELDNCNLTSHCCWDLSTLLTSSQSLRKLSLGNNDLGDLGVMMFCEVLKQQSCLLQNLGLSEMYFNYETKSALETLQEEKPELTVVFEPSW

Row | Compound | IC50 [µM]
1 | C#Cc1ccc(-c2nnc(NC(=O)CNCC)cc2C)c(O)c1 [Compound 2, N-(6-(4-ethynyl-2-hydroxyphenyl)-5-methylpyridazin-3-yl)-2-(ethylamino)acetamide] | 0.0181
2 | C#Cc1ccc(-c2nnc(NC(=O)CNC(C)C)cc2C)c(O)c1 [Compound 3, N-(6-(4-ethynyl-2-hydroxyphenyl)-5-methylpyridazin-3-yl)-2-(isopropylamino)acetamide] | 0.0324
3 | C#Cc1ccc(-c2nnc(NC(=O)CNC3CC3)cc2C2CC2)c(O)c1 [Compound 10, N-(5-cyclopropyl-6-(4-ethynyl-2-hydroxyphenyl)pyridazin-3-yl)-2-(cyclopropylamino)acet amide] | 0.0192
4 | C#Cc1ccc(-c2nnc(NC(=O)CN)cc2C2CC2)c(O)c1 [Compound 13, 2-amino-N-(5-cyclopropyl-6-(4-ethynyl-2-hydroxyphenyl)pyridazin-3-yl)acetamide] | 0.0232
5 | C#Cc1ccc(-c2nnc(NC(=O)CNC)cc2C(C)C)c(O)c1 [Compound 16, N-(6-(4-ethynyl-2-hydroxyphenyl)-5-isopropylpyridazin-3-yl)-2-(methylamino)acetamide] | 0.0085
6 | CNCC(=O)Nc1cc(C)c(-c2ccc(C(F)(F)F)cc2O)nn1 [Compound 17, N-(6-(2-hydroxy-4-(trifluoromethyl)phenyl)-5-methylpyridazin-3-yl)-2-(methylamino)acet amide] | 0.0178
7 | C#Cc1ccc(-c2nnc(NC(=O)CNC3CC(O)C3)cc2C2CC2)c(O)c1 (stereo not shown) [Compound 33, N-(5-cyclopropyl-6-(4-ethynyl-2-hydroxyphenyl)pyridazin-3-yl)-2-((3-hydroxycyclobutyl)amino)acetamide] | 0.0145
8 | C#Cc1ccc(-c2nnc(NC(=O)CNCC3CC3)cc2C)c(O)c1 [Compound 34, N-(6-(4-ethynyl-2-hydroxyphenyl)-5-methylpyridazin-3-yl)-2-((cyclopropylmethyl)amino) acetamide] | 0.0188
9 | C#Cc1ccc(-c2nnc(NC(=O)[C@@H](C)NC)cc2C2CC2)c(O)c1 [Compound 36, (R)-N-(5-cyclopropyl-6-(4-ethynyl-2-hydroxyphenyl)pyridazin-3-yl)-2-(methylamino)prop anamide] | 0.0029
10 | C#Cc1ccc(-c2nnc(NC(=O)[C@H](C)NC)cc2C2CC2)c(O)c1 [Compound 37, (S)-N-(5-cyclopropyl-6-(4-ethynyl-2-hydroxyphenyl)pyridazin-3-yl)-2-(methylamino)prop anamide] | 0.0294
11 | C#Cc1ccc(-c2nnc(NC(=O)[C@H]3CCCN3)cc2C2CC2)c(O)c1 [Compound 43, (R)-N-(5-cyclopropyl-6-(4-ethynyl-2-hydroxyphenyl)pyridazin-3-yl)pyrrolidine-2-carboxamide] | 0.0214
12 | C#Cc1ccc(-c2nnc(NC(=O)[C@H](N)Cc3ccccc3)cc2C2CC2)c(O)c1 [Compound 52, (R)-2-amino-N-(5-cyclopropyl-6-(4-ethynyl-2-hydroxyphenyl)pyridazin-3-yl)-3-phenylpro panamide] | 0.0129
13 | C#Cc1ccc(-c2nnc(NC(=O)[C@H](N)CO)cc2C2CC2)c(O)c1 [Compound 55, (R)-2-amino-N-(5-cyclopropyl-6-(4-ethynyl-2-hydroxyphenyl)pyridazin-3-yl)-3-hydroxypr opanamide] | 0.0236
14 | C#Cc1ccc(-c2nnc(NC(=O)[C@H](N)C(C)C)cc2C2CC2)c(O)c1 [Compound 56, (R)-2-amino-N-(5-cyclopropyl-6-(4-ethynyl-2-hydroxyphenyl)pyridazin-3-yl)-3-methylbut anamide] | 0.0071
15 | C#Cc1ccc(-c2nnc(NC(=O)[C@H](N)[C@H](C)O)cc2C2CC2)c(O)c1 [Compound 57, (2R, 3S)-2-amino-N-(5-cyclopropyl-6-(4-ethynyl-2-hydroxyphenyl)pyridazin-3-yl)-3-hydroxyb utanamide] | 0.0175
16 | C#Cc1ccc(-c2nnc(NC(=O)[C@H](N)[C@@H](C)O)cc2C2CC2)c(O)c1 [Compound 59, (2R,3R)-2-amino-N-(5-cyclopropyl-6-(4-ethynyl-2-hydroxyphenyl)pyridazin-3-yl)-3-hydro xybutanamide] | 0.0323
17 | CNCC(=O)Nc1nnc(-c2ccc(C(F)(F)F)cc2O)c(C2CC2)n1 [Compound 60, N-(5-cyclopropyl-6-(2-hydroxy-4-(trifluoromethyl)phenyl)-1,2,4-triazin-3-yl)-2-(methylamino)acetamide] | 0.0321
18 | CNCC(=O)Nc1cc(C2CCC2)c(-c2ccc(C(F)(F)F)cc2O)nn1 [Compound 61, N-(5-cyclobutyl-6-(2-hydroxy-4-(trifluoromethyl)phenyl)pyridazin-3-yl)-2-(methylamino) acetamide] | 0.0062

Continued, values first:

Row | IC50 [µM] | Compound
19 | 0.0165 | C#Cc1ccc(-c2nnc(NC(=O)CNC)cc2C)c(O)c1 [Compound 1, N-(6-(4-ethynyl-2-hydroxyphenyl)-5-methylpyridazin-3-yl)-2-(methylamino)acetamide]
20 | 0.0013 | C#Cc1ccc(-c2nnc(NC(=O)CNC)cc2C2CC2)c(O)c1 [Compound 7, N-(5-cyclopropyl-6-(4-ethynyl-2-hydroxyphenyl)pyridazin-3-yl)-2-(methylamino)acetamide]
21 | 0.0014 | C#Cc1ccc(-c2nnc(NC(=O)CNCC)cc2C2CC2)c(O)c1 [Compound 8, N-(5-cyclopropyl-6-(4-ethynyl-2-hydroxyphenyl)pyridazin-3-yl)-2-(ethylamino)acetamide]
22 | 0.0097 | C#Cc1ccc(-c2nnc(NC(=O)CNC(C)C)cc2C2CC2)c(O)c1 [Compound 9, N-(5-cyclopropyl-6-(4-ethynyl-2-hydroxyphenyl)pyridazin-3-yl)-2-(isopropylamino)acetamide]
23 | 0.0034 | CNCC(=O)Nc1cc(C(C)C)c(-c2ccc(C(F)(F)F)cc2O)nn1 [Compound 19, N-(6-(2-hydroxy-4-(trifluoromethyl)phenyl)-5-isopropylpyridazin-3-yl)-2-(methylamino)a cetamide]
24 | 0.0003 | CNCC(=O)Nc1cc(C2CC2)c(-c2ccc(C(F)(F)F)cc2O)nn1 [Compound 20, N-(5-cyclopropyl-6-(2-hydroxy-4-(trifluoromethyl)phenyl)pyridazin-3-yl)-2-(methylamino)acetamide]
25 | 0.0131 | C#Cc1ccc(-c2nnc(NC(=O)CNC3CCC3)cc2C)c(O)c1 [Compound 31, N-(6-(4-ethynyl-2-hydroxyphenyl)-5-methylpyridazin-3-yl)-2-(cyclobutylamino)acetamide]
26 | 0.0064 | C#Cc1ccc(-c2nnc(NC(=O)[C@@H](C)N)cc2C2CC2)c(O)c1 [Compound 44, (R)-2-amino-N-(5-cyclopropyl-6-(4-ethynyl-2-hydroxyphenyl)pyridazin-3-yl)propanamide]
27 | 0.0068 | C[C@@H](N)C(=O)Nc1cc(C2CC2)c(-c2ccc(C(F)(F)F)cc2O)nn1 [Compound 50, (R)-2-amino-N-(5-cyclopropyl-6-(2-hydroxy-4-(trifluoromethyl)phenyl)pyridazin-3-yl)pro panamide]
28 | 0.0146 | C#Cc1ccc(-c2nnc(NC(=O)[C@H](N)COC)cc2C2CC2)c(O)c1 [Compound 51, (R)-2-amino-N-(5-cyclopropyl-6-(4-ethynyl-2-hydroxyphenyl)pyridazin-3-yl)-3-methoxyp ropanamide]
29 | 0.0059 | C#Cc1ccc(-c2nnc(NC(=O)[C@H](N)C3CC3)cc2C2CC2)c(O)c1 [Compound 53, (R)-2-amino-2-cyclopropyl-N-(5-cyclopropyl-6-(4-ethynyl-2-hydroxyphenyl)pyridazin-3-yl)acetamide]
30 | 0.0209 | C#Cc1ccc(-c2nnc(NC(=O)CNC)cc2C2CCC2)c(O)c1 [Compound 62, N-(5-cyclobutyl-6-(4-ethynyl-2-hydroxyphenyl)pyridazin-3-yl)-2-(methylamino)acetamide]
31 | 0.0072 | C[C@@H](N)C(=O)Nc1cc(C2CCC2)c(-c2ccc(C(F)(F)F)cc2O)nn1 [Compound 63, (R)-2-amino-N-(5-cyclobutyl-6-(2-hydroxy-4-(trifluoromethyl)phenyl)pyridazin-3-yl)prop anamide]
32 | 0.0141 | CC(C)c1cc(NC(=O)[C@@H](C)N)nnc1-c1ccc(C(F)(F)F)cc1O [Compound 64, (R)-2-amino-N-(6-(2-hydroxy-4-(trifluoromethyl)phenyl)-5-isopropylpyridazin-3-yl)propa namide]
33 | 0.0315 | C#Cc1ccc(-c2nnc(NC(=O)[C@@H](C)N)cc2C2CCC2)c(O)c1 [Compound 65, (R)-2-amino-N-(5-cyclobutyl-6-(4-ethynyl-2-hydroxyphenyl)pyridazin-3-yl)propanamide]
34 | 0.0139 | C#Cc1ccc(-c2nnc(NC(=O)[C@@H](C)N)cc2C(C)C)c(O)c1 [Compound 66, (R)-2-amino-N-(6-(4-ethynyl-2-hydroxyphenyl)-5-isopropylpyridazin-3-yl)propanamide]
